Patent US5356781A, “Zymogen activation peptides (ZAP) in the diagnosis of disease” (Bioscience International, Inc., priority 1986, dated 1994)
Where no end group is shown, it is not given here.

Legend:
[1] = test system: affinity-purified Ca^2+ -dependent antibodies present in sera from rabbit 1 (anti-D4 K); experiment: Solution phase competitive immunoradiometric assay: competition of binding to 125I-YD4 K, precipitation with second antibody; conditions: Ca2+-dependent antibodies from rabbit 1; FIG. 3; read-out: IC50, displacement of binding to 125I-YD4 K
Description: The relative affinities of affinity-purified Ca^2+ -dependent antibodies present in sera from rabbit 1 for various peptides was examined by determining competition of binding to ^125 I-YD4 K, measured by precipitation with a second antibody, donkey anti-rabbit. […] Some binding to Asp2 Lys was seen.
100 μl of a 1:250 dilution of anti-D4 K antiserum or a dilution of affinity-purified anti-D4 K antibodies in 50mM Tris-Hcl, 20mM CaCl2, 0.1% (w/v) BSA, pH 7.4 (RIA buffer) were added to 100 μl of ^125 I-YD4 K, (10,000 cpm) in RIA buffer containing 0.2% (v/v) normal rabbit serum in polystyrene tubes. Then 100 μl of solutions containing various concentrations of standard peptides or unknown plasma samples diluted in RIA-buffer were added, followed by 50 μl of donkey anti-rabbit Ig serum (Wellcome Biotechnology) diluted 1:10 with RIA-buffer with 0.2% normal rabbit serum. The mixtures were incubated 18 hours at 4° C., then the tubes were centrifuged at 3,000 rpm for 45 minutes at 4° C., and the supernatants aspirated. The radioactivity in the precipitates was determined in an LKB rack-gamma counter.

[2] = format: in vitro ADME
Description: The stability of APFD4 K and D4 K were examined by incubation with activated pancreatic juice, and the chemical identity of the product examined by high-voltage paper electrophoresis at pH 6.5. […] In three separate experiments, duplicate 65 to 75 mg portions of fresh dog pancreas were placed in modified Bank's medium and incubated in the presence or absence of 100 units enterokinase (Sigma Chem. Co. […]) at 37° C. for 4 hours and 22° C. for a further 20 hours. Duplicate 100 ul samples of culture medium supernatant were taken at intervals, diluted 2:1 with RIA buffer, boiled for 10 minutes and centrifuged. Supernatants were then stored at -20° C. prior to assay for D4 K peptides.

[3] = Incubation in human serum (immunoreactivity; Sephadex G-100 chromatography); format: in vitro ADME
Description: Immunoreactive D4 K was unaltered by incubation with undenatured human serum at 37° C. for 6 hours and 4° C. for 48 hours.

in vivo = conditions: rat, iv
Description: To determine the fate of circulating peptide, D4 K (0.28 ml, 1 mg/ml) was injected into the left femoral vein of rats under phenobarbital anaesthesia. Blood samples (0.5 ml) were collected every 15 minutes for 2 hours, and subjected to immunoassay.

anti-D4 K antibodies = experiment: Displacement of 125I-YD4 K binding by trypsinogen with and without enteropeptidase activation; parameters: species or system rabbit
Description: Of great importance to the general principle of the PAP assay of which this is an example, and for the application of these specific anti-D4 K antibodies to the diagnosis of pancreatic disease was the finding that anti-D4 K antibodies were […] on the peptide, and were not displaced by trypsinogen (where the peptide is C-terminally bound to the protein) in concentrations of the zymogen of up to 100 μg/ml. Upon incubation of trypsinogen with enteropeptidase, however, released D4 K-containing activation peptides actively displaced the binding of synthetic ^125 I-YD4 K giving 50% displacement after activation of a 2 μg/ml solution of trypsinogen (FIG. 4). Trypsinogen in native dog pancreatic juice was also activated by enteropeptidase (FIG. 4) releasing immunoreactive D4 K peptides, giving 50% displacement in competitive solution-phase immunoassay after activation of 10^-8 L pancreatic juice. The novel D4 K-specific antibodies described here therefore also provide a new sensitive assay for enteropeptidase and trypsinogen applicable to fluids with endogenous trypsin inhibitors. […]

## N[C@@H](CC(=O)O)C(=O)O [Asp, Aspartic Acid]
[1]
  IC50: > 100 µM

## NCCCC[C@H](N)C(=O)O [Lys, Lysine]
[1]
  IC50: > 100 µM

## APFDDDDK [APFD4 K, Ala-Pro-Phe-Asp-Asp-Asp-Asp-Lys]
[2]
  stability in activated pancreatic juice (identity of product): rapidly converted to free Ala, Pro and Phe and D4 K

## DDDDK [D4 K, Asp-Asp-Asp-Asp-Lys]
[3]; 4° C. for 48 hours
  stability of immunoreactive peptide in undenatured human serum: unaltered
[3]; 37° C. for 6 hours
  stability of immunoreactive peptide in undenatured human serum: unaltered
In vivo
  half-life: ~15 min

## YDDDDK [YD4 K]
[3]; Sephadex G-100 chromatography after incubation in human serum
  complexing with a serum component: did not complex with a serum component

## poly-Asp
[1]
  IC50: > 100 µM

B1: trypsinogen: zymogen in which the D4 K peptide is C-terminally bound to the protein (protein, UniProt P00760 18-246, looked up)
pro-form: VDDDDKIVGGYTCGANTVPYQVSLNSGYHFCGGSLINSQWVVSAAHCYKSGIQVRLGEDNINVVEGNEQFISASKSIVHPSYNSNTLNNDIMLIKLKSAASLNSRVASISLPTSCASAGTQCLISGWGNTKSSGTSYPDVLKCLKAPILSDSSCKSAYPGQITSNMFCAGYLEGGKDSCQGDSGGPVVCSGKLQGIVSWGSGCAQKNKPGVYTKVCNYVSWIKQTIASN
modifications: pro-form
anti-D4 K antibodies; after incubation of trypsinogen with enteropeptidase, FIG. 4
  concentration of solution giving 50% displacement of 125I-YD4 K: 2 µg/mL
anti-D4 K antibodies; trypsinogen without enteropeptidase activation
  concentration up to which antibodies were not displaced: > 100 µg/mL
